# Where a name gives a salt, the structure may show the parent alone.
# Experiments:
# [1] = system: philo-pleochromatic akaryocytes in animal marrow; experiment: Micronucleus Test; type: in vivo, mice; conditions: positive control 40 mg/kg; for Micronucleated Cells No.: 5000 cells tested
# Description: 2.2 Preparation of sample: Sample 5000, 2500 or 1250 mg was weighted and grinded. Distilled water was added into the grinded sample to 20 ml, and the mixture was blended sufficiently to form a test sample.
# 2.3 Animal subject: Kunming species of mice, 25-30 g, provided by experimental animal department, Fudan University. Certificate No.: 02-22-1.
# 2.5.1 Animals were divided randomly into 5 groups, 10 in each group with half of female and half of male. In the five groups, there were three groups for three doses of test sample, one negative control group, distilled water, and one positive control group, cyclophosphaide.
# 2.5.2. Animals were weighted and administrated with the test sample or control substances in different concentrations in a volume of 0.4 ml/20 g via an intragastric catheter, and the administration is repeated once more in 30 hr.
# 2.5.3 Animals were sacrificed via cervical bertebra dislocation 6 hr. after the second intragastric administration. The marrow was taken out of the femoral bone and blended uniformly with calf serum. Then, the film preparation, the fixation, and Giemasa stain were undertaken conventionally.
# 2.5.4 Test under microscope: Numbers of micronuclei were counted in over one thousand of philo-pleochromatic akaryocytes. Incidence rates of micronuclei were calculated and analyzed statistically.
# spermatozoa = experiment: Teratospermia Test; type: in vivo, mice; conditions: positive control 40 mg/kg
# Description: 3.2 Preparation of sample: Sample 5000, 2500 or 1250 mg was weighted and grinded. Distilled water was added into the grinded sample to 20 ml, and the mixture was blended sufficiently to obtain a test sample.
# 3.3 Animal subject: Male mice, depuratory grade, 25-30 g, provided by experimental animal department, Fudan University. Certificate No.: 02-22-1.
# 3.5.1 Animals were divided randomly into 5 groups, 5 in each group. It the five groups, there were three groups for three doses of test sample, one negative control group, distilled water, and one positive control group, cyclophosphaide.
# 3.5.2. Animals were weighted and administrated with the test sample or control substances in different concentrations in a volume of 0.4 ml/20 g via an intragastric catheter, once a day for 5 days.
# 3.5.3 Animals were sacrificed via cervical bertebra dislocation 35 days after the first intragastric administration. The ambo-epididymises were taken off and put into normal saline. After being cut into pieces, they were filtered through a four layer gauze. The filter was smeared, fixed and dyed with 2% eosin.
# 3.5.4 Test under microscope: Amounts of teratosperm in 1000 spernatozoas were counted per mouse and rates of teratospermia were calculated statistically.
# TA102 = experiment: AmesTest, strain TA102
# Description: (§1) 4.3 Sample processing and preparation: 4000 mg sample was weighted and distilled water was added into the sample to 20 ml, then the mixture was blended to obtain a 200 mg/ml of solution. 3, 1, 0.3 and 0.1 mL of this solution were taken, respectively and each was added with sterile distilled water to 10 ml to obtain a solution in the concentration of 60 mg/ml, 20 mg/ml, 6 mg/ml and 2 mg/ml, respectively.
# (§2) 4.4 Test doses: 0.2 mg/dish, 0.6 mg/dish, 2 mg/dish, 6 mg/dish and 20 mg/dish
# (§3) 4.7 Test strains: TA97, TA98, TA100 and TA102, with qualitied biological characters, provided by Biochemistry Dept., California University, CA, America. The concentration of the bacteria liquid used for the test was 1-2×10^9/ml.
# A healthy adult SD rat with a body weight of about 150 g was selected. Polychlorinatedbiphenyl was dissolved into corn oil to obtain a solution of 200 mg/ml. The above solution was injected (i.p.), in a sterile operation, into the rat in a dose of 500 mg/kg. 5 days later, the animal was sacrificed via decapitation. The liver was taken out and weighted, then rinsed several times with 0.15 mol/L of fresh cooled solution of potassium chloride. The amount of the potassium chloride solution was 3 ml/g liver (wet weight). The beaker in which the rinsed liver put was removed into an ice bath, and the liver was cut into pieces with a pair of sterilized scissors. The liver was homogenized with a tissue homogenizer (2000 r/min, 1 min), then the liver homogenate thus prepared was centrifuged in a high speed centrifuge (0-4° C., 9000 g, 10 min). The supernatant, S9 part, was packed into several sterile tubes and conserved in liquid nitrogen. The above steps need to be operated in a sterile and cooled local circumstance. The S9 thus prepared was further identified for its content of protein and bioactivity of indirect mutagen.
# Standard plate incorporation on the basis of GB15193-94: Into the top agar (45° C., 2 ml), the bacterial liquid 0.1 ml, Sample 0.1 ml and S9 mixture 0.5 ml for activation were added sequently. The mixture was blended sufficiently and poured rapidly onto the underlayer medium. After the incubation of 48 hr. at 37° C., results were observed. each test was repeated once more.
# TA100 = experiment: AmesTest, strain TA100
# Description: as §1, §2, §3
# A healthy adult SD rat with a body weight of about 150 g was selected. Polychlorinatedbiphenyl was dissolved into corn oil to obtain a solution of 200 mg/ml. The above solution was injected (i.p.), in a sterile operation, into the rat in a dose of 500 mg/kg. 5 days later, the animal was sacrificed via decapitation. The liver was taken out and weighted, then rinsed several times with 0.15 mol/L of fresh cooled solution of potassium chloride. The amount of the potassium chloride solution was 3 ml/g liver (wet weight). The beaker in which the rinsed liver put was removed into an ice bath, and the liver was cut into pieces with a pair of sterilized scissors. […]
# M cells = experiment: tissue culture experiments, growth of M cells / collagen fiber network; type: cell-based; conditions: vs control group (P>0.05)
# Excerpt: The difference in comparison with the control group is statistically significant ([…]).
# [2] = Salmonella typhimurium, 48 h, 1 μl/dish
smiles,measurement,setting,value
O=P1(N(CCCl)CCCl)NCCCO1 (stereo not shown) [Cyclophosphaide],Rate of Micronuclei (‰),[1]; F,25.8 ‰
same,Micronucleated Cells No.,[1]; F,129
same,Rate of Micronuclei (‰),[1]; M,26.4 ‰
same,Micronucleated Cells No.,[1]; M,132
same,Aberration rate (‰),spermatozoa,58.4 ‰
same,Type of aberration (n): Banana sharp,spermatozoa; 5000 spernatozoa tested,32
same,Type of aberration (n): Double head,spermatozoa; 5000 spernatozoa tested,4
same,Type of aberration (n): Double tail,spermatozoa; 5000 spernatozoa tested,6
same,Type of aberration (n): Fat head,spermatozoa; 5000 spernatozoa tested,45
same,Type of aberration (n): Fold tail,spermatozoa; 5000 spernatozoa tested,2
same,Type of aberration (n): No crook,spermatozoa; 5000 spernatozoa tested,28
same,Type of aberration (n): amorphism,spermatozoa; 5000 spernatozoa tested,175
"O=C1c2cccc(O)c2C(=O)c2c(O)cccc21 [1,8-dioxy anthraquinone]",Re-established colonies,"TA102; first test, TA102 +S9, positive control 50 μl/dish",885 ± 56 colonies/sish
same,Re-established colonies,"TA102; second test, TA102 +S9, positive control 50 μl/dish",975 ± 86 colonies/sish
COS(C)(=O)=O [Methyl mesylate],Re-established colonies,TA102; [2],2520 ± 112 colonies/sish
same,Re-established colonies,"TA102; first test, TA102 −S9, positive control 1 μl/dish",2784 ± 289 colonies/sish
same,Re-established colonies,TA100; [2],1641 ± 80 colonies/sish
same,Re-established colonies,"TA100; first test, TA100 −S9, positive control 1 μl/dish",1463 ± 84 colonies/sish
"C[C@@H]1O[C@@H](O[C@@H]2[C@@H](O)[C@H](OCCc3ccc(O)c(O)c3)O[C@H](CO)[C@H]2OC(=O)/C=C/c2ccc(O)c(O)c2)[C@H](O)[C@H](O)[C@H]1O [acteoside, Acteoside]",promotion on the growth of M cells,M cells,obvious promotion

# From patent US20090301508A1, “Cosmetic Composition and Preparation Method and Use Thereof” (priority 2006, published 2009)
